Results on three molecules are retold here after paper PMC7284125, “Identification of annotated bioactive molecules that impair motility of the blood fluke Schistosoma mansoni” (International Journal for Parasitology: Drugs and Drug …, 2020).

SMILES strings stand for the structures. Where two headings read alike, the source gives them in different places.

For one series, the system named is schistosomes. Also on record: method as in de Almeida et al., 2016. To be noted: 12.5–100 μM; ref de Almeida et al., 2016; cited from earlier work.
Series [1] has as its system S. mansoni schistosomulae. Kind of series: Phenotypic primary screen assay on schistosomulae (phenotype; viability by methylene blue dye exclusion). It counts as cell-based. To be noted: Schistosoma mansoni; three-day-old schistosomulae, 10 μM, 24 h; calculated 5 days post compound exposure; read-out: Viability (%).
For another series, the system named is S. mansoni adult worms. Kind of series: Motility assay on adult parasites (pixel displacement, relative to DMSO control). Format: cell-based, Schistosoma mansoni. To be noted: 10 μM; for motility phenotype in words: adults, long-term after washout; for Fractional motility: secondary screen. In a few lines:
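Unpaired adult worms from mice 6 weeks post-infection kept in OPTI-MEM with 5% dialyzed FBS and exposed to compounds at 1 and 10 μM for 24 h. Motility filmed 1 min at 10 frames/s, quantified by pixel displacement versus DMSO-treated worms; recovery followed up to five days after washout.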

Series [2] relates to S. mansoni schistosomulae. The series can be described thus: Phenotypic primary screen assay on schistosomulae (phenotype; viability by methylene blue dye exclusion). Format: cell-based, Schistosoma mansoni. To be noted: for effect on viability of schistosomulae in words: 24 h incubation, five days; for Phenotype: three-day-old schistosomulae, 10 μM, 24 h, estimated 5 days post compound exposure. In outline: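 Parasites lacking contraction/relaxation cycles and showing dark internal granulations counted as dead. Movement and body shape were compared with DMSO-treated controls under a stereo microscope at 24 h and at five days of exposure. Larvae came from infected snails shed under light for 2 h at 32 °C.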

For series [3], the system named is S. mansoni schistosomulae. Kind of series: Motility assay on schistosomulae (pixel displacement, relative to DMSO control). It counts as cell-based, Schistosoma mansoni. To be noted: for activity at 1 µM: Schistosoma mansoni, read-out: Fractional motility. In a few lines: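 Motility was scored by pixel displacement from 1-min videos (10 frames/s) and compared with DMSO controls. Schistosomulae (200/well, Opti-MEM, 5% dialyzed FBS, no antibiotics) received compound at 1 or 10 μM for 24 h; selected hits were also followed at 1, 3, 6 and 12 h.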

In series [4] the test system is schistosomulae. Also on record: method as in El-Sakkary et al., 2018. To be noted: 20 min exposure, 10 μM; ref El-Sakkary et al., 2018; cited from earlier work.
The subject of series [5] is schistosomulae. On the set-up: method as in Panic et al., 2015b. To be noted: 72 h incubation at 10 μM; ref Panic et al., 2015b; cited from earlier work.
Setting [6] is: 120 h, schistosomulae, secondary screen, 24h exposure, read at D5, 1 µM.
[7] abbreviates: schistosomulae, secondary screen, 24h exposure, read at D1, 1 µM.
[8] abbreviates: schistosomulae, 1h exposure, read at D1, 10 µM.
Setting [9] is: schistosomulae, 1h exposure, read at D5, 10 µM.
[10] abbreviates: schistosomulae, 3h exposure, read at D1, 10 µM.
[11] abbreviates: schistosomulae, 3h exposure, read at D5, 10 µM.
Where [12] appears, read: schistosomulae, 6h exposure, read at D1, 10 µM.
Setting [13] is: schistosomulae, secondary screen, 24h exposure, read at D1, 10 µM.
Where [14] appears, read: schistosomulae, secondary screen, 24h exposure, read at D5, 10 µM.

With `C=C1C(=O)O[C@H]2[C@H]1CC/C(C)=C/CC[C@@]1(C)O[C@@H]21` [(-)-Parthenolide], in the series on schistosomes, the mortality is listed as 100%. For the same molecule, the viability at 10 µM in series [1] is 0%. This molecule gave a hypomotility in the series on S. mansoni adult worms (adult male and female parasites, long-term) of 49.5%. In addition, in the series on S. mansoni adult worms, the “motility phenotype in words” value is reported as “severely paralyzed adults”. Also, the Fractional motility in the series on S. mansoni adult worms (D1, Female adult worms) is recorded as -0.36; in the series on S. mansoni adult worms (D1, Male adult worms), 0.14; with S. mansoni adult worms (D5, Female adult worms), -0.65; with S. mansoni adult worms (D5, Male adult worms), -0.34; in series [3] (setting [8]) it was -0.61; in series [3] (setting [9]), -0.72. Moreover, the Fractional motility was -0.27 in series [3] (setting [10]); -0.10 in series [3] (setting [11]); 3.66 in series [3] (setting [12]); -0.86 in series [3] (schistosomulae, 6h exposure, read at D5, 10 µM); 0.67 in series [3] (setting [13]); -0.99 in series [3] (setting [14]). The “effect on viability of schistosomulae in words” value in series [2] was “total schistosomulicid action”. Further, the Phenotype entry in series [2] is reported as “big, dark, granulated”. The results for the activity at 1 µM in series [3] (setting [6]) and in series [3] (setting [7]) were -16% and -3%, respectively.

Turning to `CN(C)CCCN1c2ccccc2Sc2ccc(Cl)cc21` [Chlorpromazine], the viability at 10 µM in series [1] is 96%. The Fractional motility is on record as 0.57 with S. mansoni adult worms (D1, Female adult worms); 2.38 in the series on S. mansoni adult worms (D1, Male adult worms); -0.45 in the series with S. mansoni adult worms (D5, Female adult worms); 0.24 with S. mansoni adult worms (D5, Male adult worms); 13.78 in series [3] (setting [13]); 3.15 in series [3] (setting [14]). For the same molecule, the “peak motility relative to control schistosomulae” value in the series on schistosomulae [4] is “exceeding 50 fold”. Moreover, in series [2], the Phenotype entry is on record as “elongated”. For the same molecule, the “hypermotility compared to control schistosomulae” value in series [3] (10 μM) is over 10 fold. The activity at 1 µM in series [3] (setting [6]) stood at 95%; in series [3] (setting [7]), 785%.

With `COC(=O)C1=C(C)NC(C)=C(C(=O)OCCN2CCN(C(c3ccccc3)c3ccccc3)CC2)C1c1cccc([N+](=O)[O-])c1` (stereo not shown) [Manidipine], the viability at 10 µM in series [1] is 97%. The “motility phenotype in words” value with S. mansoni adult worms was “strongly impaired movement”. Moreover, the Fractional motility in the series on S. mansoni adult worms (D1, Female adult worms) is given as 0.19; in the series with S. mansoni adult worms (D1, Male adult worms), -0.20; in the series with S. mansoni adult worms (D5, Female adult worms), -0.91; in the series on S. mansoni adult worms (D5, Male adult worms), -0.98; in series [3] (setting [8]), -0.94; in series [3] (setting [9]), -0.59. In addition, the Fractional motility in series [3] (setting [10]) is recorded as -0.33; in series [3] (setting [11]) it was -0.75; in series [3] (setting [12]) it was -0.74; in series [3] (setting [13]), -0.78; in series [3] (setting [14]) it was -0.85. In series [2], the “effect on viability of schistosomulae in words” value is given as “no larval mortality was observed”. Moreover, the Phenotype entry in series [2] is listed as “abnormal morphology, big, granulated”. For the same molecule, the activity at 1 µM is -59% in series [3] (setting [6]) and -79% in series [3] (setting [7]). The hypomotility in series [3] (schistosomulae, all tested concentrations until five days after drug washout) is reported as at least 59%. Moreover, the “motility in extended assay with reduced incubation times, in words” value in series [3] (three-day old schistosomulae, incubation 1 h, 3 h, 6 h) was “significant and sustained hypomotility”. Besides, the “activity on schistosomulae in words” value in the series on schistosomulae [5] was “schistosomulicidal”.

One may read the mortality as the share of the test organisms that died. A word on the viability: it is the share of living cells, or the viability signal relative to a control.
